In patent US8106004B2, “Methods of inhibiting tumor cell aggressiveness using the microenvironment of human embryonic stem cells” (Children's Memorial Hospital, priority 2006, dated 2012) one finds Nodal expression data, which are given here for 1 substance.

The subject of the data set is Nodal. In words: Nodal expression in C8161 cells (Western blot, real time RT-PCR). In kind it is cell-based, human. Particulars: anti-Nodal Morpholino. The method, then:
A determination of the effects of H9 CMTX on Nodal expression in metastatic melanoma (C8161) and breast carcinoma (MDA-MB-231) cells was undertaken. […] Exposure to H9 CMTX similarly abrogates Nodal mRNA expression in the melanoma and breast carcinoma cells (FIG. 9C).
Protein lysates were prepared and quantified as previously described in Hess et al., 2001, Cancer Res. 61:3250-3255. Equal amounts of protein were separated by SDS-polyacrylamide gel electrophoresis under reducing conditions, and the resolved proteins were transferred onto Immobilon-P membranes (Millipore Corp., Bedford, Mass.). Membranes were blocked in 1% TBS, 0.1% Tween 20 (TBS-T) and 5% dry milk powder or 3% gelatin (for Nodal Westerns). Blots were incubated with anti-Nodal or anti-Lefty antibodies (Polyclonal rabbit anti-Nodal (H-110) 1:500 Santa Cruz Biotechnology, Santa Cruz, Calif.; Polyclonal goat anti-Lefty 1:500 R&D Systems, Minneapolis, Minn.), washed in TBS-T, and incubated with the appropriate horseradish peroxidase-labeled secondary antibody. Secondary antibodies were detected by enhanced chemiluminescence (Super Signal; Pierce, Rockford, Ill.) and exposure to autoradiography film (Molecular Technologies, St Louis, Mo.). Nodal protein was detected as two major bands at ˜48 and ˜35 kDa representing precursor and pro-Nodal respectively. Nodal often appeared as multiple bands, likely due to degradation of protein modifications. All experiments were done at least three times.
The derivation and phenotypic characteristics of the human melanoma cell lines have been previously described. Seftor, et. al., 2002, Clin. Experim. Metastas. 19:233-246; Seftor, et. al., 2005 Cancer Res. 65:10164-10169. The melanoma cell lines are maintained in RPMI 1640 medium (Invitrogen) supplemented with 10% fetal bovine serum (FBS, Gemini Bioproducts) and 0.1% gentamycin sulfate with the exception of C81-61 cells which are maintained in Ham's FIO medium supplemented with 15% FBS, 1X Mito+ (BD Bioscience) and gentamycin sulfate. […] The cultures are determined to be free of mycoplasma contamination using a PCR-based assay (Roche). […]
Background: A western blot detects proteins with antibodies after separation by electrophoresis.

With “MO^Nodal: FITC-conjugated anti-sense Morpholino to Nodal, 5′-AAGCAGCACCTCCAGCCCTTATATC-3′ [SEQ ID NO: 20] (all phosphorodiamidate morpholino (PMO); FITC conjugated, position not given here)”, the Nodal expression entry is recorded as “down-regulation of Nodal”.
